Results taken from ChEMBL document CHEMBL5518204, “Discovery and Proof of Concept of Potent Dual Polθ/PARP Inhibitors for Efficient Treatment of Homologous Recombination-Deficient Tumors” (J Med Chem, 2024).
pIC50: −log10 of the molar value. The source made the active and inactive calls. No cut-off for these calls is given here.

Key:
DNA polymerase theta = DNA polymerase theta (Homo sapiens, UniProt O75417); experiment: Inhibition of DNA polymerase theta (unknown origin) ATPase activity incubated for 60 mins in presence of ATP by ADP-glo kinase assay
[1] = molecular target: T1, Poly [ADP-ribose] polymerase 1 (Homo sapiens, UniProt P09874); experiment: Inhibition of human PARP1 incubated for 90 mins by colorimetric assay
MDA-MB-436 [2] = experiment: Antiproliferative activity against BRCA1-deficient human MDA-MB-436 cells assessed as inhibition of cell proliferation incubated for 5 days by MTT assay; type: functional, cell-based; details: MDA-MB-436, 120 h
MCF-10A [3] = experiment: Effect on DNA polymerase theta expression in human MCF-10A cells by immunoblotting analysis; type: functional, cell-based
MCF-10A [4] = experiment: Effect on PARP1 expression in human MCF-10A cells by immunoblotting analysis; type: functional, cell-based
[5] = Metabolic stability in human liver microsome assessed as half life; type: ADME; details: liver microsomes
[6] = Metabolic stability in rat liver microsome assessed as half life; type: ADME; details: liver microsomes
[7] = Metabolic stability in mouse liver microsome assessed as half life; type: ADME; details: liver microsomes
[8] = Cmax in Sprague-Dawley rat at 1 mg/kg, iv by LC-MS/MS analysis; type: ADME, organism-based; details: in vivo
[9] = Volume of distribution at steady state in Sprague-Dawley rat at 1 mg/kg, iv by LC-MS/MS analysis; type: ADME, organism-based; details: in vivo, read-out: Vdss
[10] = molecular target: Poly [ADP-ribose] polymerase 2 (Homo sapiens, UniProt Q9UGN5); experiment: Inhibition of PARP2 (unknown origin)
[11] = molecular target: T2, Poly [ADP-ribose] polymerase tankyrase-2 (Homo sapiens, UniProt Q9H2K2); experiment: Inhibition of PARP5b (unknown origin)
T2 sequence (Q9H2K2 whole entry): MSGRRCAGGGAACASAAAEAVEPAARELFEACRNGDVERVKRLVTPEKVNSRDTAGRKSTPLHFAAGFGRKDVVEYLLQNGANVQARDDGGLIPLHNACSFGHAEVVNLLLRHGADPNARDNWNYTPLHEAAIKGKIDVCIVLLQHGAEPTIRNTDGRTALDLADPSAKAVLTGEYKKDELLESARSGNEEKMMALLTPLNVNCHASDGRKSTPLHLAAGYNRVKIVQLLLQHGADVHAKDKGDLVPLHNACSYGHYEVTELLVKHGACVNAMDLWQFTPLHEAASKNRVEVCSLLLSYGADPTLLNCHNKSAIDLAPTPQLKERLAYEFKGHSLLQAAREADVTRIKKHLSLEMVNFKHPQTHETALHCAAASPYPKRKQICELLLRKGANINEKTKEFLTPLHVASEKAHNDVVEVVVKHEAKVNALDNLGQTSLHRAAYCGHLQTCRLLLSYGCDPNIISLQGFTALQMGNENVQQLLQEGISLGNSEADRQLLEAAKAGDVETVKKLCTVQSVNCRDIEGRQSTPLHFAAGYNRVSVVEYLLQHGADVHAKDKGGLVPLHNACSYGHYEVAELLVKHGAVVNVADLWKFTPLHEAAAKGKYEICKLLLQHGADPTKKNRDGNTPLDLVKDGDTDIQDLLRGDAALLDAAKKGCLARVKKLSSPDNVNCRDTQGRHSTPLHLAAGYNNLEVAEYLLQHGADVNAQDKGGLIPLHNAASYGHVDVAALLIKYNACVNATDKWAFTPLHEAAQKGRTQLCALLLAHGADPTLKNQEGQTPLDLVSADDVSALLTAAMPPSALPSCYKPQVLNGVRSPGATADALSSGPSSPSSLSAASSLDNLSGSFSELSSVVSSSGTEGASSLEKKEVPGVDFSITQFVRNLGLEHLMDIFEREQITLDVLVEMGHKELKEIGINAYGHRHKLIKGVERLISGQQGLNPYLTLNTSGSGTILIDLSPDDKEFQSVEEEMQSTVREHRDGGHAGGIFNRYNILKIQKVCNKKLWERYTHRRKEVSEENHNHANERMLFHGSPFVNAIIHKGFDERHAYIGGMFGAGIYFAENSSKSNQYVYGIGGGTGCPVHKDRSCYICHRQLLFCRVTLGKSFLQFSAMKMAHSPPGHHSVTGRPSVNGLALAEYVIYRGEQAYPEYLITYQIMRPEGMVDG

MDA-MB-436 [12] = experiment: Inhibition of colony formation in human MDA-MB-436 cells at 2 uM incubated for 9 days by crystal violet staining based analysis; type: functional, cell-based; details: time 9.0 day
MDA-MB-231 [13] = experiment: Induction of DNA damage in human MDA-MB-231 cells assessed as increase in gammaH2AX foci at 2 uM incubated for 3 days by DAPI staining based confocal laser scanning microscopic analysis; type: functional, cell-based; details: time 3.0 day
MDA-MB-231 [14] = experiment: Induction of DNA damage in human MDA-MB-231 cells assessed as increase in tail intensity at 2 uM incubated for 3 days by florescence microscopic analysis; type: functional, cell-based; details: time 3.0 day
[15] = Stability in mouse plasma assessed as half life; type: ADME, cell-free
MDA-MB-231 [16] = experiment: Antitumor activity against human MDA-MB-231 cells xenografted in ip dosed BALB/c mouse assessed as increase in gammaH2Ax expression administered for 21 days; type: functional, organism-based; details: dose 20-40 mg/kg, time 21.0 day
[17] = molecular target: T1, Poly [ADP-ribose] polymerase 1; details: dose 10.0 nM, time 90.0 min

T1 sequence (P09874 whole entry): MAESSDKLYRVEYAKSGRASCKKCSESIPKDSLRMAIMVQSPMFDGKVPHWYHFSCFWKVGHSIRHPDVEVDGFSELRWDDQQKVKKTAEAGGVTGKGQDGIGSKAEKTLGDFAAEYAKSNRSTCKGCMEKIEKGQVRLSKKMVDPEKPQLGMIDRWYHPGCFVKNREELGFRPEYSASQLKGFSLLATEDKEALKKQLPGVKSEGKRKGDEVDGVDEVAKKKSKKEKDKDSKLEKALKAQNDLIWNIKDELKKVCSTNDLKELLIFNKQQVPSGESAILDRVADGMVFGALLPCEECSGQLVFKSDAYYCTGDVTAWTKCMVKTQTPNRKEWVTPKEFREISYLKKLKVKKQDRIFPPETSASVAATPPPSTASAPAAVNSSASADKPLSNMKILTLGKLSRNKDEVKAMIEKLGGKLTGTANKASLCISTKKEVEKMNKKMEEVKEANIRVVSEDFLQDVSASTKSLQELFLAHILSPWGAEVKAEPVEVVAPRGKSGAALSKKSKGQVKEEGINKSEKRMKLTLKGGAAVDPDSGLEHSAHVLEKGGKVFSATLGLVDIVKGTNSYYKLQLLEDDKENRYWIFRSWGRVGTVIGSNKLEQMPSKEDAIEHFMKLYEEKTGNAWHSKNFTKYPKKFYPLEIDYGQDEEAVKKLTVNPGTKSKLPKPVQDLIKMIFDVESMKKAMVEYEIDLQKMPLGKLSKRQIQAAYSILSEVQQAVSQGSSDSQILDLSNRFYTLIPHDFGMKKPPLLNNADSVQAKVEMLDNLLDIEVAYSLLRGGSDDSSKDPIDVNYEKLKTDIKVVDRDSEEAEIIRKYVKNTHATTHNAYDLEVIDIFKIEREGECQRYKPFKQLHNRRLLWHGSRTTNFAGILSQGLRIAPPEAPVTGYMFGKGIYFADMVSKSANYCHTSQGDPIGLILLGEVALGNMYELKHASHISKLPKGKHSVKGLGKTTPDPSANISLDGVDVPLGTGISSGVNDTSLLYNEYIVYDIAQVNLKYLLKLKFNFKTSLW
DNA polymerase theta, sequence (O75417 whole entry): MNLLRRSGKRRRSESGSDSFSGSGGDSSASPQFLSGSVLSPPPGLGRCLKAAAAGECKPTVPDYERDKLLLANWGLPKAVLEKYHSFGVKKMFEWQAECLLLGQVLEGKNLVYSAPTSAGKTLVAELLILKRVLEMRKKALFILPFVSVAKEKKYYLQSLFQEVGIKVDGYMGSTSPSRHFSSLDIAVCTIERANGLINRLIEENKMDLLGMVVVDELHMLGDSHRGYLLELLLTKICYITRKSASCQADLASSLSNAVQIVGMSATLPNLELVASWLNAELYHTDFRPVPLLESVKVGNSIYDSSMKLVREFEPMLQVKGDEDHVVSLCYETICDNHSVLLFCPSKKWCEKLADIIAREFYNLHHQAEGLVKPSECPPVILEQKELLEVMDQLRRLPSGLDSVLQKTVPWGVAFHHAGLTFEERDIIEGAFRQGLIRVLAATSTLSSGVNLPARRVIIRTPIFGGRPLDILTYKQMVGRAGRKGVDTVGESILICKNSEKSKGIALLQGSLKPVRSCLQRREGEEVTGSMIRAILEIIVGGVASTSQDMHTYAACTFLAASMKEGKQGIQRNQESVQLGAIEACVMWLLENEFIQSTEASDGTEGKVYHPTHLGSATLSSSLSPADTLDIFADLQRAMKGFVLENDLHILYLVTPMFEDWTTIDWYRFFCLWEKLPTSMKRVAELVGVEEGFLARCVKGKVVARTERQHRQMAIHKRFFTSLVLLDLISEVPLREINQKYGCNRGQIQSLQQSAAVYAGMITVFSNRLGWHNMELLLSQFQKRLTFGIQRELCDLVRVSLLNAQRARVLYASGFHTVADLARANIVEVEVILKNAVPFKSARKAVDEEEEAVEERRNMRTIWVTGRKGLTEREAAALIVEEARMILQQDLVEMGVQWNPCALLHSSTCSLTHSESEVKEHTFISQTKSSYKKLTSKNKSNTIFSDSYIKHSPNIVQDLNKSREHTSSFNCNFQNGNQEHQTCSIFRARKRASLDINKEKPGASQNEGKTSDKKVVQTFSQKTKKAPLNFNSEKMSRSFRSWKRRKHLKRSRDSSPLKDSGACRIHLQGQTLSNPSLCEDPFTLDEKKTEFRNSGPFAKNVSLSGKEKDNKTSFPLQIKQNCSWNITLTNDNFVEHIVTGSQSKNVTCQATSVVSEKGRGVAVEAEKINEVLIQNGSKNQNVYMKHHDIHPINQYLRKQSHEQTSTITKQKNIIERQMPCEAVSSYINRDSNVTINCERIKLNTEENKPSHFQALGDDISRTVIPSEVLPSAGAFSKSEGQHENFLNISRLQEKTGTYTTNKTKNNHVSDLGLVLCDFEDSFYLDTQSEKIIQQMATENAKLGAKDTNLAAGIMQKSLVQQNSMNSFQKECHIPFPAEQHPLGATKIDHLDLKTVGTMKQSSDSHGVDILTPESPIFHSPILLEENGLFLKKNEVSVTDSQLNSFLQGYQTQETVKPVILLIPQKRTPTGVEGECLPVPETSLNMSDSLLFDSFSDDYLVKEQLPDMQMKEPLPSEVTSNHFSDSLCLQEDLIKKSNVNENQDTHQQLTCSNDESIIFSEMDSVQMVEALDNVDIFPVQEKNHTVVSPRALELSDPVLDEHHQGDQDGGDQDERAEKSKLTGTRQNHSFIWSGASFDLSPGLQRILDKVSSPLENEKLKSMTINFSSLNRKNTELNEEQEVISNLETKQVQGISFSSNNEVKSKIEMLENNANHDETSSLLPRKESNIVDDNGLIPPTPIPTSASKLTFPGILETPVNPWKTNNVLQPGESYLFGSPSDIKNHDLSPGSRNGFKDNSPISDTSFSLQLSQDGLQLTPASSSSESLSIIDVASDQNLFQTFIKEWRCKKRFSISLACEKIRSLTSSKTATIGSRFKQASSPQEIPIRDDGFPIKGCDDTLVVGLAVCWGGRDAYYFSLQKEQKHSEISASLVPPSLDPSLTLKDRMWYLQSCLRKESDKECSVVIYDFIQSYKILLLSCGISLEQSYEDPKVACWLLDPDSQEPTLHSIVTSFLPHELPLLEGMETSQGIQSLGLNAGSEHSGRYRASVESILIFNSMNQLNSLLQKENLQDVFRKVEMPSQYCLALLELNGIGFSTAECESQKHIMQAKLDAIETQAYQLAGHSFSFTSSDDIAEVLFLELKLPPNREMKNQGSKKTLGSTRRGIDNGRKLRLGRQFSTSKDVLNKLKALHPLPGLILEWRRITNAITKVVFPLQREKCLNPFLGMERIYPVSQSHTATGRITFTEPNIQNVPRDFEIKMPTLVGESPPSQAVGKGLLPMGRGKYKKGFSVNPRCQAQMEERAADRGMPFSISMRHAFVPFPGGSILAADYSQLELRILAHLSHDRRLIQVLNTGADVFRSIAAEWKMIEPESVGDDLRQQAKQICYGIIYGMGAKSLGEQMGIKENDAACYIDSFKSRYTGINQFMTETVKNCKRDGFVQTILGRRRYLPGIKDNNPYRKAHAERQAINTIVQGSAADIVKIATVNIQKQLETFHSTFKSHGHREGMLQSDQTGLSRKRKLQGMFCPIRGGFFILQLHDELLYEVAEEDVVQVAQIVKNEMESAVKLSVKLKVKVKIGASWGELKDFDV
Poly [ADP-ribose] polymerase 2, sequence (Q9UGN5 whole entry): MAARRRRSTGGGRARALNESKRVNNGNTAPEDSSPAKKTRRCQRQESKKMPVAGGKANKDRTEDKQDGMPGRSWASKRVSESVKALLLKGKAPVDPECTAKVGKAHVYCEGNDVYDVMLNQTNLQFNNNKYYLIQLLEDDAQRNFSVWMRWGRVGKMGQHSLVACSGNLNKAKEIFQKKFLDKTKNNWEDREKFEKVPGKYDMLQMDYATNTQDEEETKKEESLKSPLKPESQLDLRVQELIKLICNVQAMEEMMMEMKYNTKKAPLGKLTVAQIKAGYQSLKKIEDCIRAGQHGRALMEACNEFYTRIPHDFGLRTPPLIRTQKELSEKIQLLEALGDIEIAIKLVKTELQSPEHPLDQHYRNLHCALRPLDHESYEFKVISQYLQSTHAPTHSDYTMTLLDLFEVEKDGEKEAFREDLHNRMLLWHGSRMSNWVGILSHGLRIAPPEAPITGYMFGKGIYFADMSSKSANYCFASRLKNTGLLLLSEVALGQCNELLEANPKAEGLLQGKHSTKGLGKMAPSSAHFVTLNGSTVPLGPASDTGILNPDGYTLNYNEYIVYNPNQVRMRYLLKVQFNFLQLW

pIC50 (DNA polymerase theta): 7.34
pIC50 [1]: 8.27
pIC50 (MDA-MB-436 [2]): 5.57
half-life [5]: 2.35 min
half-life [6]: 3.11 min
half-life [7]: 5.1 min
Cmax [8]: 1950 ng/mL
Vd [9]: 1.12 L/kg
pIC50 [10]: 8.64
pIC50 [11]: 6.81
half-life [15]: 38.5 h
inhibition [17]: 71.1%
Compound: COc1ccc(Cl)cc1-c1cc(C)ncc1C(=O)Nc1nnc(OCC2CCN(C(=O)c3cc(Cc4n[nH]c(=O)c5ccccc45)ccc3F)CC2)s1
Activity (MCF-10A [3]): Active
Activity (MCF-10A [4]): Active
inhibition (MDA-MB-436 [12]): Active
Activity (MDA-MB-231 [13]): Active
Activity (MDA-MB-231 [14]): Active
Activity (MDA-MB-231 [16]): Dose-Dependent Effect
